The target of experiment [1] is T1, human IDO1 (Homo sapiens, UniProt P14902). In words: Assessment of human IDO-1 inhibitory activity in Hela cells (Interferon-gamma stimulated HeLa cells, Ehrlich reagent, absorbance 490 nm). It is filed as cell-based. Details: endogenous in cells; host or cells: HeLa cells stimulated with interferon-gamma. As to conditions: Hela Human IDO-1 cellular assay. As for the experimental part:
Exemplary compounds were tested for inhibition of IDO activity.
Assessment of Human IDO-1 Inhibitory Activity in Hela Cells
HeLa cells were seeded at 20,000 cells per 30 μL per well with RPMI/phenol red free media containing 10% FBS in a 384-well tissue culture plate (black with clear bottoms). 50 nL of compound was added to cells and incubated at 37° C. for one hour. 20 μL of the recombinant human Interferon-gamma (R&D System, Cat. #285-IF, at final concentration of 10 ng/ml) or recombinant murine Interferon-gamma (PEPROTECH® Inc., Cat. #315-05, final concentration of 5 ng/ml) was added to activate IDO signaling. The cells were incubated for 18 hours in 37° C. incubator with 5% CO2.
Compound treatment was stopped by adding 5 μl trichloroacetic acid to a final concentration of 3%. Subsequently, the cell plate was further incubated at 50° C. for 30 minute. An equal volume supernatant (20 μL) and 2% (w/v) Ehrlich reagent (4-dimethylaminobenzaldehyde) in glacial acetic acid were mixed in a new clear bottom 384-well plate. This plate was incubated at room temperature for 30 minutes. Absorbance at 490 nm was measured on Envision plate reader.
Compound IC50 values were calculated using counts from unstimulated (no INF-gamma treatment) wells as 100% inhibition. INF-gamma treatment without compound treatment as 0% inhibition.

Experiment [2] deals with T1, human IDO1. In words: Assessment of human IDO-1 inhibitory activity in HEK cells (human IDO1/HEK293 cells, kynurenine read-out with Ehrlich reagent, absorbance 490 nm). It is filed as cell-based. Also noted: expressed in transfected cells. As to conditions: HEK Human IDO-1 cellular assay. In outline: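 HEK293 cells stably expressing human IDO1 were seeded at 10,000 per well in phenol red-free RPMI with 10% FBS, treated with compound for 20 h at 37 °C. Kynurenine was measured after TCA (0.2% final) and 30 min at 50 °C, using Ehrlich reagent, A490. IC50 normalised to DMSO (0%) and 500 nM reference standard (100%).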

T1 sequence (P14902 whole entry): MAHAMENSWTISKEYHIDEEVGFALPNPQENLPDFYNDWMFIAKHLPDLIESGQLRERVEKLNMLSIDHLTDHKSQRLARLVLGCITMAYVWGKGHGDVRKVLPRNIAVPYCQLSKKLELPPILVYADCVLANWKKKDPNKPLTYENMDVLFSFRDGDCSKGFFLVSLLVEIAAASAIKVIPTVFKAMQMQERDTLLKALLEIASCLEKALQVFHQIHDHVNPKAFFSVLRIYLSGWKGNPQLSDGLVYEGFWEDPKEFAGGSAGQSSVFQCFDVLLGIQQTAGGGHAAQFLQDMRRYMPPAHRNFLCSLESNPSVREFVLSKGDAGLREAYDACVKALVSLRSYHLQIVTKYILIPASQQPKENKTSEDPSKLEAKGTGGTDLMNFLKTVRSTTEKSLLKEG

Consider “3-(4-((1,1-dioxidotetrahydro-2H- thiopyran-4-yl)(ethyl)amino)-3- ((4-fluorophenyl)amino)phenyl)- 4-isopropoxybutanoic acid [Example 340]”, for which the IC50 at human IDO1 [1] is below 50 nM.
Same read-out and setting: under `CCOc1ncc(Nc2cc(C(CC)CC(=O)O)cnc2N(CC(C)C)CC(C)C)cn1` (racemic) [Example 1376, (+/−)-3-(6-(Diisobutylamino)-5-((2-ethoxypyrimidin-5-yl)amino)pyridin-3-yl)pentanoic acid] stands below 5 nM.
On the same count and under the same terms, under `CCC(CC(=O)O)c1cnc(N(CC)C2CCOCC2)c(NC(=O)Nc2ccc(C)cc2)c1` (racemic) [Example 1377, (+/−)-3-(6-(Ethyl(tetrahydro-2H-pyran-4-yl)amino)-5-(3-(p-tolyl)ureido)pyridin-3-yl)pentanoic acid] stands below 50 nM; under `CCOc1ncc(Nc2cc(C(CC)CC(=O)O)cnc2N(CC)C2CCOCC2)cn1` (racemic) [Example 1378], below 5 nM; under `CCC(CC(=O)O)c1cnc(N(CC)C2CCOCC2)c(Nc2ccc(C#N)cc2)c1` (racemic) [Example 1379], below 5 nM.
On the same count and under the same terms, under `CCC(CC(=O)O)c1cnc(N(CC)C2CCOCC2)c(Nc2ccc(Cl)cc2)c1` (racemic) [Example 1380] stands below 5 nM.
Consider `COCC(CC(=O)O)c1ccc(N2C[C@@H](C)O[C@@H](C)C2)c(Nc2ccc(C#N)cc2)c1` (single isomer, unassigned) [602 E1], for which the IC50 at human IDO1 [1] was above 50 nM.
As to `CCC(CC(=O)O)c1ccc(N(CC)C2CCOC2)c(NC(=O)Nc2ccc(Cl)cc2F)c1` (single isomer, unassigned) [948 D2], the IC50 on human IDO1 [1] was below 50 nM.
On the same count and under the same terms, under `CCC(CC(=O)O)c1ccc(N2CCOCC2)c(Nc2ccc(C#N)cc2)c1` (single isomer, unassigned) [Example 6 Enantiomer 1, 3-(3-((4-Cyanophenyl)amino)-4-morpholinophenyl)pentanoic acid] stands above 50 nM.
Regarding `CCC(CC(=O)O)c1ccc(N2CCOCC2)c(Nc2ccc(C#N)cc2)c1` (single isomer, unassigned) [Example 6 Enantiomer 2, 3-(3-((4-Cyanophenyl)amino)-4-morpholinophenyl)pentanoic acid], the IC50 at human IDO1 [1] was below 50 nM.
On the same count and under the same terms, under `CCOc1ncc(Nc2cc(C(CC)CC(=O)O)ccc2N2CCOCC2)cn1` (single isomer, unassigned) [Example 7 Enantiomer 2, 3-(3-((2-Ethoxypyrimidin-5-yl)amino)-4-morpholinophenyl)pentanoic acid] stands above 50 nM.
The same measure, in the same setting: under `CCC(CC(=O)O)c1ccc(N2CCOCC2)c(NC(=O)Nc2ccc(C)cc2)c1` (single isomer, unassigned) [Example 8 Enantiomer 1, 3-(4-Morpholino-3-(3-(p-tolyl)ureido)phenyl)pentanoic acid] stands above 50 nM.
On the same count and under the same terms, under `CCC(CC(=O)O)c1ccc(N2CCOCC2)c(NC(=O)Nc2ccc(C)cc2)c1` (single isomer, unassigned) [Example 8 Enantiomer 2, 3-(4-Morpholino-3-(3-(p-tolyl)ureido)phenyl)pentanoic acid] stands below 50 nM.
Turning to `CCN(c1ccc(C(C)(C)CC(=O)O)cc1Nc1cnc(OC)nc1)C1CCOCC1` [Example 162, 3-(4-(ethyl(tetrahydro-2H-pyran-4-yl)amino)-3-((2-methoxypyrimidin-5-yl)amino)phenyl)-3-methylbutanoic acid], on human IDO1 [2], the IC50 was below 50 nM.
Take `CCN(c1ccc(C(C)(C)CC(=O)O)cc1Nc1cnc(OCC2CC2)nc1)C1CCOCC1` [Example 163, 3-(3-((2-(cyclopropylmethoxy)pyrimidin-5-yl)amino)-4-(ethyl (tetrahydro-2H-pyran-4-yl)amino)phenyl)-3-methylbutanoic acid]: at human IDO1 [2], the IC50 is below 5 nM.
With `CCN(c1ccc(C(C)(C)CC(=O)O)cc1Nc1ccc2nc(C)sc2c1)C1CCOCC1` [Example 164, 3-(4-(ethyl(tetrahydro-2H-pyran-4-yl)amino)-3-((2-methylbenzo[d]thiazol-6-yl)amino)phenyl)-3-methylbutanoic acid], the IC50 at human IDO1 [2] was below 50 nM.
As to `CCOc1ccc(NC(=O)Nc2cc(C(C)(C)CC(=O)O)ccc2N(CC)C2CCOCC2)cc1` [Example 166, 3-(3-(3-(4-Ethoxyphenyl)ureido)-4-(ethyl(tetrahydro-2H-pyran-4-yl)amino)phenyl)-3-methylbutanoic acid], the IC50 at human IDO1 [2] is above 50 nM.
As for `CCN(c1ccc(C(C)(C)CC(=O)O)cc1NC(=O)Nc1ccc(C)cc1)C1CCOCC1` [Example 167, 3-(4-(Ethyl(tetrahydro-2H-pyran-4-yl)amino)-3-(3-(p-tolyl)ureido)phenyl)-3-methylbutanoic acid], the IC50 at human IDO1 [2] was below 50 nM.
As for `CC[C@H](CC(=O)O)c1ccc(N(CC(C)C)C2CCS(=O)(=O)CC2)c(Nc2ccc3sc(C)nc3c2)c1` [Example 214, 3-(4-((1,1-Dioxidotetrahydro-2H-thiopyran-4-yl)(isobutyl)amino)-3-((2-methylbenzo[d]thiazol-5-yl)amino)phenyl)pentanoic acid], the IC50 on human IDO1 [2] was below 50 nM.
The same measure, in the same setting: under `CCC(CC(=O)O)c1ccc(N(CC2CC2)C2CCOCC2)c(NC(=O)Nc2ccc(C)cc2)c1` (centres unmarked) [Example 698] stands below 50 nM.
On the same count and under the same terms, under `C[C@@H]1CN(c2ccc(C(C)(C)CC(=O)O)cc2Nc2ccc(C#N)cc2)C[C@H](C)O1` [Example 731, 3-(3-((4-Cyanophenyl)amino)-4-((2S,6R)-2,6-dimethylmorpholino)phenyl)-3-methylbutanoic acid] stands below 50 nM; under `C[C@@H]1CN(c2ccc(C(C)(C)CC(=O)O)cc2Nc2ccc(F)cc2)C[C@H](C)O1` [Example 732, 3-(4-((2S,6R)-2,6-dimethylmorpholino)-3-((4-fluorophenyl)amino)phenyl)-3-methylbutanoic acid], below 50 nM.
On the same count and under the same terms, under `C[C@@H]1CN(c2ccc(C(C)(C)CC(=O)O)cc2Nc2ccc(Cl)cc2)C[C@H](C)O1` [Example 733, 3-(3-((4-chlorophenyl)amino)-4-((2S,6R)-2,6-dimethylmorpholino)phenyl)-3-methylbutanoic acid] stands below 50 nM; under `CCc1ccc(Nc2cc(C(C)(C)CC(=O)O)ccc2N2C[C@@H](C)O[C@@H](C)C2)cc1` [Example 734, 3-(4-((2S,6R)-2,6-dimethylmorpholino)-3-((4-ethylphenyl)amino)phenyl)-3-methylbutanoic acid], above 50 nM; under `COc1ncc(Nc2cc(C(C)(C)CC(=O)O)ccc2N2C[C@@H](C)O[C@@H](C)C2)cn1` [Example 735, 3-(4-((2S,6R)-2,6-dimethylmorpholino)-3-((2-methoxypyrimidin-5-yl)amino)phenyl)-3-methylbutanoic acid], above 50 nM.
Take `CCOc1ncc(Nc2cc(C(C)(C)CC(=O)O)ccc2N2C[C@@H](C)O[C@@H](C)C2)cn1` [Example 736, 3-(4-((2S,6R)-2,6-dimethylmorpholino)-3-((2-ethoxypyrimidin-5-yl)amino)phenyl)-3-methylbutanoic acid]: the IC50 on human IDO1 [2] was above 50 nM.
The same measure, in the same setting: under `CC(C)(CC(=O)O)c1ccc(N2CCC[C@H]2C(C)(C)O)c(Nc2ccc(F)cc2)c1` [Example 807, (S)-3-(3-((4-Fluorophenyl)amino)-4-(2-(2-hydroxypropan-2-yl)pyrrolidin-1-yl)phenyl)-3-methylbutanoic acid] stands above 50 nM; under `CC(C)(CC(=O)O)c1ccc(N2CCC[C@H]2C(C)(C)O)c(Nc2ccc(Cl)cc2)c1` [Example 808, (S)-3-(3-((4-chlorophenyl)amino)-4-(2-(2-hydroxypropan-2-yl)pyrrolidin-1-yl)phenyl)-3-methylbutanoic acid], below 50 nM.
Still for that read-out and setting: under `CC(C)(CC(=O)O)c1ccc(N2CCC[C@H]2C(C)(C)O)c(Nc2ccc(C#N)cc2)c1` [Example 809, (S)-3-(3-((4-cyanophenyl)amino)-4-(2-(2-hydroxypropan-2-yl)pyrrolidin-1-yl)phenyl)-3-methylbutanoic acid] stands below 50 nM.
Take `COC(Cc1ccc(N(CC(C)C)C2CCCCC2)c(NC(=O)Nc2ccc(Cl)cc2F)c1)C(=O)O` (centres unmarked) [Example 1012, 3-(3-(3-(4-Chloro-2-fluorophenyl)ureido)-4-(cyclohexyl(isobutyl)amino)phenyl)-2-methoxypropanoic acid]: the IC50 at human IDO1 [2] is below 50 nM.
For `CCOc1ncc(Nc2cc([C@H](CC)CC(=O)NS(C)(=O)=O)ccc2N(CC)C2CCOCC2)cn1` [Example 1078, 3-(3-((2-Ethoxypyrimidin-5-yl)amino)-4-(ethyl(tetrahydro-2H-pyran-4-yl)amino)phenyl)-N-(methylsulfonyl)pentanamide], the IC50 at human IDO1 [2] was below 50 nM.
The same measure, in the same setting: under `COCC(CC(=O)O)c1cc(F)c(N(CC(C)C)C2CCCCC2)c(NC(=O)Nc2ccc(OC)cc2F)c1` (centres unmarked) [Example 1159, 3-(4-(cyclohexyl(isobutyl)amino)-3-fluoro-5-(3-(2-fluoro-4-methoxyphenyl)ureido)phenyl)-4-methoxybutanoic acid] stands below 5 nM.

Broadly, the IC50 is the concentration at which inhibition is half-maximal.

Values taken from US9790169B2, “IDO inhibitors” (BRISTOL-MYERS SQUIBB COMPANY, priority 2015, dated 2017).
